Here are results for 81 compounds from the METLIN SMRT retention time set (Domingo-Almenara et al. 2019).

The structures appear in SMILES notation.

The data set is described as follows: gradient 5% acetonitrile 3 min, to 50% in 2 min, to 85% in 15 min, held 3 min, 100 µL/min. To be noted: column: Zorbax Extend-C18 2.1 x 50 mm; eluents: water / acetonitrile, 0.1% formic acid. The method in brief:
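Retention times come from adduct peaks that were picked computationally and then checked by hand. The standards, pure and pooled in mixtures of ~100 molecules, were run on a Zorbax Extend-C18 column (2.1 × 50 mm, 1.8 μm) at 100 μL/min with water and acetonitrile, each with 0.1% formic acid. Detection was by quadrupole time-of-flight mass spectrometry in positive and negative ionization mode, with a dead volume of 40 μL and a dwell volume of 900 μL.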
`CCn1nccc1-c1cccc(-c2noc(-c3ccc(C)cc3)n2)c1` came in with an RP-LC retention time of 1310 s.

The compound `O=C(Nc1ccc2c(c1)OCCO2)N1CCCC(CN2CCOCC2)CC1` (stereo unspecified) displayed an RP-LC retention time of 590 s.

`O=C(Nc1ccc(Br)cc1)NC1CCN(c2ccccc2)C1=O` (stereo unspecified) displayed an RP-LC retention time of 849 s.

With `CC(C)(C)c1nnc(NC(=O)C2CCN(C(=O)c3ccc(F)cc3)CC2)s1`, the RP-LC retention time stood at 776 s.

`CCOc1ccccc1-n1nnc(C(=O)OC)c1C(=O)OC` came in with an RP-LC retention time of 862 s.

Regarding `COc1ccc(OC)c(CNC(=O)c2nnc(-c3ccc(S(=O)(=O)N4CCOCC4)cc3)o2)c1`, the RP-LC retention time was 826 s.

For `COc1cc(-c2nnc(SCc3c(F)cccc3Cl)o2)cc(OC)c1OC`, the RP-LC retention time was found to be 1070 s.

For `CN(C)CCNC(=O)c1ccnc(-c2ccsc2)c1`, the RP-LC retention time was 573 s.

The compound `CN(CC1CCOC1)C(=O)Nc1cccc(Br)c1` (stereo unspecified) showed an RP-LC retention time of 716 s.

On to `Cc1ccc(Cn2c(N3CCCC(C(=O)NCCC(C)C)C3)nc3ccsc3c2=O)cc1` (stereo unspecified), for which the RP-LC retention time is 1030 s.

Compound `O=C(NC1CC1)C1c2ccccc2CC(=O)N1Cc1ccccc1` (stereo unspecified) registered an RP-LC retention time of 750 s.

`CN1CCN(C(=O)Nc2ccc([N+](=O)[O-])cc2)CC1` gave an RP-LC retention time of 634 s.

Take `CCC(=O)N1c2ccccc2NC2=C(C(=O)CC(C)(C)C2)C1c1ccc(C#N)cc1` (stereo unspecified): the RP-LC retention time was found to be 797 s.

In turn, `O=C(c1ccccc1Cl)N1CCN(c2nc(CN3CCOCC3)cs2)CC1` displayed an RP-LC retention time of 600 s.

With `CCSc1nnc(-c2nn(C)c3c2CN(S(=O)(=O)c2cccc(Cl)c2)CC3)n1CC`, the RP-LC retention time worked out at 989 s.

`COc1ccc(NC(=O)C2CCCN(c3nc4c(s3)c(C)nn4-c3ccccc3)C2)c(OC)c1` (stereo unspecified) came in with an RP-LC retention time of 1160 s.

Regarding `COC(=O)C(Cc1ccccc1)NC(=O)N1CCCn2nc(-c3cccnc3)cc2C1` (stereo unspecified), the RP-LC retention time amounted to 616 s.

The compound `CCn1cc(C(CNC(=O)Nc2ccc(OC)cc2)c2cccnc2)c2ccccc21` (stereo unspecified) displayed an RP-LC retention time of 700 s.

As for `Cc1cc(-c2nnc(-c3ccco3)o2)c(C)n1CC(=O)Nc1cccc(Cl)c1`, the RP-LC retention time is 920 s.

In the case of `Cc1ccc(-c2noc(Cc3nnc(-c4cccc(C)c4)o3)n2)cc1`, the RP-LC retention time amounted to 1130 s.

For the compound `CCn1cc(CC(=O)NCc2ccc(C)o2)c2cccnc21`, the RP-LC retention time was determined as 682 s.

As for `O=C(NCCc1ccsc1)C1CC(=O)N(c2ccc(F)cc2)C1` (stereo unspecified), the RP-LC retention time was 698 s.

On to `COC(=O)c1c(C)[nH]c(C(=O)N2CCC(CC(=O)N3CCN(c4ccccn4)CC3)CC2)c1C`, for which the RP-LC retention time was 606 s.

In turn, `CC(C)Oc1ccc(-c2noc(Cn3nc(-c4ccc5c(c4)OCO5)ccc3=O)n2)cc1` registered an RP-LC retention time of 1080 s.

Take `NC(=O)C1CCN(CC(=O)Nc2nc(-c3ccccc3)cs2)CC1`: the RP-LC retention time was 588 s.

`Cc1[nH]c(C)c(S(=O)(=O)N2CCC(C(=O)N3CCCCC3C)CC2)c1C(=O)N1CCCCC1` (stereo unspecified): the RP-LC retention time came out at 724 s.

Consider `COc1ccc(-c2noc(C3CCCN3C(=O)c3ccc(N(C)C)cc3)n2)cc1` (stereo unspecified), for which the RP-LC retention time was determined as 961 s.

In turn, `CN(CC1(C)CCOCC1)C(=O)Cc1ccccc1Cl` returned an RP-LC retention time of 818 s.

`Cc1ccc(NC(=O)C2CCN(S(=O)(=O)c3c(C)[nH]c(C)c3C(=O)N3CCCC3)CC2)cc1C` registered an RP-LC retention time of 727 s.

As to `O=C(NC1CCCC1)c1c2c(nc3ccccc13)CCCC2`, the RP-LC retention time stood at 625 s.

Turning to `O=C(NCc1ccccc1)C1CCc2nc(N3CCCCC3)ncc2C1` (stereo unspecified), the RP-LC retention time turned out to be 720 s.

In turn, `CCOC(=O)c1sc(NC(=O)C2CC(=O)N(c3n[nH]c4ccccc34)C2)nc1C` (stereo unspecified) registered an RP-LC retention time of 750 s.

`Cc1ccc(NC(=O)N2CCC(CC(=O)N3CCCCC3)CC2)cc1F`: the RP-LC retention time came to 813 s.

As to `CN(C)C(=O)c1ccc2c(c1)N(CC(=O)Nc1ccc(F)cc1)C(=O)CS2`, the RP-LC retention time turned out to be 704 s.

`CC(=O)c1cccc(NC(=O)Cn2c(-c3ccccc3)nc(C)cc2=O)c1` gave an RP-LC retention time of 912 s.

Regarding `O=C(Nc1ccc(Br)cc1)C1CCCN(c2ncc(-c3cccc(F)c3)cn2)C1` (stereo unspecified), the RP-LC retention time amounted to 1230 s.

For `COC(=O)c1ncn2c1C(=O)N(C1CC1)C(C)(C(=O)NCc1ccccc1Cl)C2` (stereo unspecified), the RP-LC retention time amounted to 658 s.

As for `CCc1nc2cc(-c3noc(-c4ccsc4)n3)ccc2o1`, the RP-LC retention time came out at 1100 s.

For the compound `COc1ccc(Cl)cc1S(=O)(=O)NCC1CCN(c2ncccn2)CC1`, the RP-LC retention time was 772 s.

Compound `CCOC(=O)Cc1csc2nc(-c3ccccc3)nn12` yielded an RP-LC retention time of 960 s.

With `CCOC(=O)C1=C(C)NC(=O)NC1c1c(F)cccc1Cl` (stereo unspecified), the RP-LC retention time was found to be 724 s.

As for `COc1ccc(OC)c(S(=O)(=O)N2CCCC(C(=O)NC3CC3)C2)c1` (stereo unspecified), the RP-LC retention time was determined as 710 s.

As to `CCc1ccc(-c2csc(Nc3ccc(S(=O)(=O)Nc4cc(OC)nc(OC)n4)cc3)n2)cc1`, the RP-LC retention time was found to be 1150 s.

Regarding `CCCN(Cc1ccc(OC)cc1)Cc1cc(=O)n2cc(C)ccc2n1`, the RP-LC retention time stood at 633 s.

`CCCN(CC1CCOC1)C(=O)Nc1cc(F)c(F)c(F)c1` (stereo unspecified): the RP-LC retention time is 844 s.

Compound `CCOc1ccc(NC(=O)Cn2ncc3c(c2=O)N(C2CC2)C(=O)CS3)cc1` yielded an RP-LC retention time of 671 s.

`CN(C)C(=O)c1ccc2c(c1)N(CC(=O)Nc1ccc(F)cc1)C(=O)CO2` showed an RP-LC retention time of 654 s.

`Cc1nc(C)c(C(=O)Nc2ccc(C)c(F)c2)s1` came in with an RP-LC retention time of 860 s.

Compound `COc1ccc(OC)c(NC(=O)C2CCN(C(=O)C3Sc4ccccc4NC3=O)CC2)c1` (stereo unspecified) came in with an RP-LC retention time of 754 s.

Compound `CN(C)c1cccc(-c2nc(-c3cn(-c4ccc(F)cc4)nn3)no2)c1` showed an RP-LC retention time of 1100 s.

`O=C(NCCn1ncccc1=O)c1ccc(S(=O)(=O)N2CCOCC2)cc1` had an RP-LC retention time of 572 s.

Consider `COc1ccc(CNC(=O)N2CC(Oc3ccc(-c4nc(C)no4)cc3)C2)cc1`, for which the RP-LC retention time is 825 s.

As to `CO/N=C1/C=C(C)C(=O)C(C)=C1C`, the RP-LC retention time is 1040 s.

In turn, `COc1cccc(-c2noc(Cn3ccn(-c4ccc(Cl)cc4)c(=O)c3=O)n2)c1` had an RP-LC retention time of 876 s.

The compound `O=C([C@@H]1C[C@H](F)CN1C(=O)c1cccc(F)c1)N1CCCCC1` yielded an RP-LC retention time of 693 s.

The compound `O=C(Cn1c(=O)c2nncn2c2ncccc21)NCc1ccccc1Cl` displayed an RP-LC retention time of 662 s.

`CSCC[C@H](NC(=O)COc1cc(C)cc2oc(=O)c3c(c12)CCC3)C(=O)O`: the RP-LC retention time was 769 s.

`CCOCCCNC(=O)C1CCCN(c2nnc(C)c3c(C)n(-c4ccc(C)cc4)nc23)C1` (stereo unspecified) showed an RP-LC retention time of 687 s.

As for `CC(C)CCNC(=O)C1CCN(c2cncnc2N(C)C)CC1`, the RP-LC retention time stood at 564 s.

`OCCN1CCN(CCCN2c3ccccc3C=Cc3ccccc32)CC1` registered an RP-LC retention time of 692 s.

The compound `CC1CCC2(CC1)NC(=O)N(CC(=O)Nc1ccccc1Cl)C2=O` (stereo unspecified) had an RP-LC retention time of 858 s.

In turn, `CCn1ccc2cc(S(=O)(=O)N3CCCN(C(=O)NCc4ccco4)CC3)ccc21` had an RP-LC retention time of 832 s.

Regarding `CCn1cc(-c2nc(C(=O)Nc3cccc(C)c3)cs2)c2cccnc21`, the RP-LC retention time came out at 1130 s.

`O=C(Nc1cccc(OC(F)(F)F)c1)C1(CCO)CCN(c2ncccn2)C1` (stereo unspecified) returned an RP-LC retention time of 661 s.

The compound `Cc1cccc2nnc(N3CCC(C(=O)NCc4ccccc4Cl)CC3)n12` had an RP-LC retention time of 679 s.

`CCN(CC)c1ncnc2c(-c3ccccc3)cn(CC(=O)NC(C)C)c12` displayed an RP-LC retention time of 686 s.

For the compound `Cc1nn2c(S(=O)(=O)N3CCC4(CC3)OCCO4)c(C)nc2s1`, the RP-LC retention time was found to be 692 s.

The compound `CN1C(=O)c2cc(C(=O)NCCN3CCCCC3)nn2CC1(C)C(=O)NCc1ccccc1` (stereo unspecified) returned an RP-LC retention time of 597 s.

Compound `O=c1c(S(=O)(=O)N2CCCCCC2)cccn1Cc1cccc(F)c1` displayed an RP-LC retention time of 946 s.

Compound `COc1ccc(C2(C(=O)N3CCC(Cc4nc(-c5ccccc5)no4)CC3)CC2)cc1` came in with an RP-LC retention time of 1050 s.

Consider `CC1(C)CS(=O)(=O)N(c2cccc(C(=O)N3CCN(c4ccccn4)CC3)c2)C1=O`, for which the RP-LC retention time was 608 s.

As for `Cc1cnc(C(=O)N2C[C@@H](Oc3cccnc3)C[C@H]2C(=O)NC2CC2)cn1`, the RP-LC retention time was determined as 554 s.

`CCOc1ccc(-c2cc(=O)n(CCCC(=O)N3CCN(S(C)(=O)=O)CC3)cn2)cc1` gave an RP-LC retention time of 680 s.

In turn, `Cc1cc(=O)n(CC(=O)Nc2ccccc2)c(-c2ccccc2)n1` displayed an RP-LC retention time of 964 s.

In turn, `Cc1ccnc(NS(=O)(=O)c2ccc(NC(=O)C3=COCCO3)cc2)n1` came in with an RP-LC retention time of 603 s.

As to `CCc1ccc(N2CC(c3noc(-c4ccco4)n3)CC2=O)cc1` (stereo unspecified), the RP-LC retention time is 921 s.

For the compound `Cc1ccc(CNC(=O)c2cn3cccc(C)c3n2)cc1`, the RP-LC retention time was 686 s.

Regarding `CC(C)NC(=O)Cn1c2ccccc2c2ncn(Cc3nc(-c4ccccc4)no3)c(=O)c21`, the RP-LC retention time turned out to be 848 s.

Compound `O=C(c1cc(-c2ccc(Br)cc2)n[nH]1)N1CCN(c2ccc(N3CCOCC3)nn2)CC1` registered an RP-LC retention time of 649 s.

As for `CC1CN(c2nc3ccccc3nc2C(C#N)C(=O)OCc2ccccc2)CC(C)O1` (stereo unspecified), the RP-LC retention time came to 1140 s.

`COc1ccc(-c2noc(C3CCCN3C(=O)c3ccco3)n2)cc1` (stereo unspecified) registered an RP-LC retention time of 809 s.
